For the assay, the target named is MBNL1-(CUG)16 complex. The assay is described as follows: EMSA inhibition of the MBNL1-(CUG)16 complex. The format is biochemical. The following applies: EMSA; KI=IC50×KD/[protein]total; read-out: KI, apparent inhibition constant, MBNL1-(CUG)16 complex. As for the experimental part:
FIG. 1A-B. Determination of inhibition constants, KI, by EMSA. (a) Representative gels showing the release of (CUG)16 at different ligand concentrations. Top band is the MBNL1-(CUG)16 complex, the bottom band is the free (CUG)16. (b) IC50 values were obtained by plotting the RNA fraction bound versus ligand concentrations. The apparent inhibition constant (KI) was calculated using the equation: KI=IC50×KD/[protein]total, where KD is the dissociation constant of the MBNL1-RNA complex and [protein] is at least 7-fold greater than the KD. Error bars represent standard deviation of three independent experiments.
An electrophoretic mobility shift assay (EMSA) was employed to determine the in vitro inhibition of MBNL1-rCUG^exp complex by monomer 1a and dimers 2a-b (FIG. 1). This study used (CUG)16, which can form a hairpin structure containing a maximum of 8 U-U mismatches. […] Likely, a 1:1 complex was formed. In this study, a truncated MBNL1 (1-272 amino acids) containing four zinc finger motifs of MBNL1 and a hexahistidine tag (C-terminus) was employed. This MBNL1 construct and the full-length MBNL1 have the similar affinities to rCUG repeats.
To determine the inhibition constant of bivalent ligands 2a and 2b, the MBNL1-(CUG)16 mixture, in which ca. 50% of the RNA is free, was incubated with various concentrations of ligand (FIG. 1a). The dimer concentrations were not raised to higher than 10 μM due to the aggregation on the gel at high concentrations. As the concentration of ligand increased, more RNA was released from the complex with MBNL protein. By fitting the plot of bound RNA fractions versus ligand concentrations with an appropriate equation, the IC50 value was determined (FIG. 1b).
(CUG)16 RNA was labeled with [γ-^32P]-ATP using T4 poly-nucleotide kinase (New England Biolabs). Labeled RNA was purified by phenol extraction and ethanol precipitation. Labeled RNA was heated at 95° C. for 5 min, then placed on ice for 10 min and diluted in protein binding buffer (175 mM NaCl, 5 mM MgCl2, 20 mM Tris-HCl (pH 8), 1.25 mM 2-mercapto-ethanol (BME), 12.5% glycerol, 2 mg/ml bovine serum albumin (BSA), 0.1 mg/ml heparin, 0.05% or 0.1% Triton X). For MBNL1-(CUG)16 binding study, MBNL1 was serially diluted by a factor of 3 in protein binding buffer. To each solution was added labeled RNA, so that the final concentration of RNA was 0.2 nM. The resulting mixtures were incubated at room temperature for 10 min and loaded onto a 6% polyacrylamide gel (80:1) at 4° C. The gel was run for 2 h at 180 V in Tris-Borate 0.5× buffer (pH 8.2-8.3). Gels were dried at 80° C. under high vacuum for 2 h, developed overnight in phosphor exposure cassette, and visualized on a Molecular Dynamics Storm PhosphorImager. The KD (1:1 stoichiometry assumption) was obtained by fitting the normalized fraction RNA bound versus the concentration of protein using the equation: Fraction RNA bound=Bmax×[MBNL1]total^h/(KD^h+MBNL1]total^h) where Bmax is maximum fraction RNA bound, h is a Hill slope. Protein concentration in reaction mixture was larger than 10-fold excess over RNA concentration. Data is illustrated in FIGS. 6 and 7.

Consider `N=C(NCCCCNc1nc(N)nc(N)n1)c1ccc(C(=N)NCCCCNc2nc(N)nc(NCCCn3cc(CCNc4nc(N)nc(NCCCCNC(=N)c5ccc(C(=N)NCCCCNc6nc(N)nc(N)n6)cc5)n4)nn3)n2)cc1` [Compound 2b], for which the Ki stood at 36 ± 12 nM.

The record behind these values is US10266520B2, “Bisamidinium-based inhibitors for the treatment of myotonic dystrophy” (The Board of Trustees of the University of Illinois, priority 2014, dated 2019).
